Results reported in patent publication US20230257385A1, “SALT AND SOLID FORMS OF TABERNANTHALOG” (priority 2021, published 2023).
Where a name gives a salt, the structure may show the parent alone.

Legend:
Format in all cases: physicochemical
[1] = Standing of solid forms over time (form by XRPD)
From the text: FIG. 844 depicts the XRPD profile of Experiment 1-Sample D2 (Tabernanthalog·Sorbate, Form A).

[2] = Thermal study: glass transition temperature (Tg) of amorphous monofumarate and sorbate
Procedure: Each salt was analysed by DSC and TGA to determine the Tg of the amorphous form. Amorphous forms were generated by thermocycling the salt past the melt temperature, cooling the sample, and once cooled the samples were reheated. Open pan and sealed pan DSC were utilised, open pan DSC were heated past the melt event, cooled, and left to stand under ambient conditions overnight.
Sealed pans were immediately cycled with no time left to stand.
TGA (open pan) samples were analysed by thermocycle, with no time for the sample to stand under ambient conditions.
The amorphous forms were generated in these studies and characterised with their Tg being measured.
A hot stage microscope heating block was used to generate the amorphous phase in-situ, to allow analysis by XRPD. A silicon XRPD sample plate was loaded with the appropriate salt. The plate was heated past the melt event, removed from the hot stage microscope block and cooled to ambient in air and analysed by XRPD to ensure that the amorphous form was generated. The amorphous material was then analysed by ^1H NMR and LC-MS to ensure there was no change in chemical composition.
Two DSC pans were charge with the appropriate salt (Tabernanthalog·Sorbate, A1270−076-A1 and Tabernanthalog·Monofumarate, Tabernanthalog·Monofumarate), the first DSC pan was not sealed (open pan DSC), the second was sealed (hermetic sealed pan DSC). The open pan DSC was cycled from 20° C. to just after the melt event for each, cooled to −20° C. and left to stand under ambient conditions over night. The open pan DSC was then heated to just before the thermal degradation event (Tabernanthalog·Sorbate ca. 160° C., Tabernanthalog·Monofumarate ca. 210° C.) The hermetic sealed DSC was heated from 20° C. to just after the melt event, cooled to −20° C. then headed to just before the same degradation event.
Two TGA crucibles were charged with the appropriate salt (Tabemanthalog·Sorbate, A1270-076-A1, Tabernanthalog·Monofumarate, Tabernanthalog·Monofumarate), both were thermocycled from 20° C. to past the melt event and then cooled to −20° C., each pan was then immediately heated to just before the degradation event to measure the Tg event.

[3] = Amorphous study (freeze drying, evaporation, spray drying, bead milling) of monofumarate and sorbate
From the text: The purpose of this study was to generate amorphous material to be characterized and used in water activity studies. To achieve this, the two salts were exposed to a variety of techniques in attempts to generate the amorphous forms, including freeze drying, evaporation, vacuum desiccation and cryodesiccation spray drying. These techniques were not successful for the two salts Tabernanthalog·Monofumarate and Tabernanthalog·Sorbate.
Bead milling was attempted to generate the amorphous form of Tabernanthalog·Sorbate (Tabernanthalog·Sorbate, Form A). The salt underwent neat milling and separately with the addition of tetradecafluorohexane (TDFH). The following experiments were performed: Experiment 6-Sample A1 (30 Hz, 2 h), Experiment 6-Sample A2 (30 Hz, 5.5 h) and Experiment 6-Sample A3 (30 Hz 1 h, TDFH), the products from each experiment was analysed by XRPD to determine the extent of crystallinity (FIG. 812). None of the experiments provided amorphous material.
Each salt was charged to a 7 ml vial (50 mg, 1.0 wt). To the vial containing Tabernanthalog·Monofumarate (Tabernanthalog·Monofumarate), was charged water (10.0 vol), to fully dissolve the sample. Tabernanthalog·Sorbate (A1270-076-A1) was taken-up in ethanol/water (15% v/v, 10 vol), a further charge of water (1.0 ml), was added to ensure that the sample dissolved.
Vials containing the salt solutions were placed on the freeze drier apparatus overnight, and the cryo-desiccated products were recovered the following morning and analysed by XRPD each product remained crystalline.
Tabernanthalog·Monofumarate (A1272−082-A2, 51.1 mg, 1.0 wt) was charged to a 7 ml scintillation vial followed by THE (2 ml, […]), the suspension was heated to 50° C., until full dissolution was observed. The vial was stoppered by foil and a pin hole was pierced in the top. The vial was located under a steady N2 stream.
Tabernanthalog·Sorbate (A1270−076-A1, 99.4 mg, 1.0 wt) was charged to a 7 ml scintillation vial, followed by hexafluoroisopropanol (HFIPA, 5.0 vol, 0.5 ml), after which, the sample fully dissolved. The cap was replaced by foil and pierced on the top. Solvent was allowed to evaporate, to afford a dry, brown solid that was analysed by XRPD yielding crystalline pattern #7. Sample were dried under N2 stream for 5 h and reanalysed by XRPD, remaining as pattern #7
Tabernanthalog·Sorbate (A1270−076-A1, 50.0 mg, 1.0 wt) was charged to a 7 ml scintillation vial followed by hexafluoroisopropanol (HFIPA, 0.5 ml, 10 vol), to yield a clear solution. The solution was concentrated to dryness, by rotary evaporation, yielding an oil, that was allowed to stand undisturbed overnight.
Tabernanthalog·Sorbate (A1270−076-A1, 50.0 mg, 1.0 wt) was charged to a 7 ml scintillation vial, followed by methanol (300 μl, 6.0 vol). The solution was clarified by filtration into a 7 ml scintillation vial, containing diethyl ether (1.0 ml, 20.0 vol).
Tabernanthalog·Sorbate (A1270−076-A1, 102 mg, 1 wt) was charged to a 7.0 ml scintillation vial followed by methanol (1.9 ml, 19.0 vol). The solution was loaded into the spray drier apparatus.
The procedure yielded a brown powder (30 mg, 30% th.).
Tabernanthalog·Sorbate (A1270-076-A1, Form A) was charged to a 1.5 ml steel milling-vessel with a single 5 mm ball bearing. The sample was milled for 5.5 h at 30 Hz and yielded an off-white powder, that was analysed by XRPD, no change in crystallinity.

[4] = Stability assessment at 40° C./75% RH (open vial / double bagged open vial); conditions: 4-to-5-week period
Procedure: FIG. 62 depicts the XRPD diffractogram overlay of the time point monitoring of 2-A (open vial) at 75% RH at 40° C. Overlay of, from bottom to top, the tabernanthalog monofumarate (Sample Reference 1, t=0), 2-A1 (t=3 h), 2-A2 (t=24 h), 2-A3 (t=48 h), 2-A4 (t=7 days), 2-A5 (t=2 weeks), 2-A6 (t=3 weeks), 2-A7 (t=4 weeks), 2-A8 (t=5 weeks).
FIG. 63 depicts the XRPD diffractogram overlay of the time point monitoring of 2-B (double bagged open vial) at 75% RH at 40° C. Overlay of, from bottom to top, the tabernanthalog monofumarate salt (Sample Reference 1, t=0), 2-B1 (t=3 h), 2-B2 (t=24 h), 2-B3 (t=48 h), 2-B4 (t=7 days), 2-B5 (t=2 weeks), 2-B6 (t=3 weeks), 2-B7 (t=4 weeks), 2-B8 (t=5 weeks).

[5] = Qualitative solubility screen of the tabernanthalog monofumarate salt in solvents (Example 5, Experiment Reference 1; Example 2)
Procedure: Consistent with Example 1, samples were dissolved in various solvents/solvent systems and cooled to isolate solid material.
Tabernanthalog fumarate dissolved at 5 vol (200 mg/mL) only at reflux in two solvents, water and methanol. At 15 vol the product dissolved in both refluxing butanol and ethanol. Consistent with Example 1, the dissolved samples were cooled. On cooling, each of the four effective solvents yielded solid material. The solids thus obtained were analyzed by XRPD yielding diffractograms with novel peaks from products isolated from each of the four protic solvents.
The tabernanthalog monofumarate salt (Pattern #1, Sample Reference 1, 25 mg, 1 wt) was weighed out in 20 separate vials to qualitatively examine the solubility in an array of diverse solvents. […] If insoluble at 5 vol, the solvent quantity was increased to 10 vol, 15 vol and 20 vol of the respective solvent. […] The insoluble suspensions were additionally worked up for XRPD analysis. The resultant powder patterns were subsequently cross-referenced against the input supplied material.

[6] = Stability examination of supplied monofumarate material at 40° C./75% RH (Example 5, Experiment Reference 2); conditions: 75% RH at 40° C., up to 5 w
[7] = Amorphisation activity: Antisolvent/N2 Flow, 50 mg
[8] = Amorphisation activity: Freeze dry, 50 mg
[9] = Amorphisation activity: HFIP Evaporation, 50 mg
[10] = Amorphisation activity: Milling, 50 or 100 mg
[11] = Amorphisation activity: Rotary Vac (MeOH), 50 mg
[12] = Amorphisation activity: Spray drying (15% EtOH/Water), 100 mg
[13] = Amorphisation activity: Spray drying (MeOH), 100 mg
[14] = Amorphisation activity: THF/N2, 50 mg

C/C=C/C=C/C(=O)O.COc1ccc2c3c([nH]c2c1)CCN(C)CC3 [Experiment 1-Sample D1]
form by XRPD after standing overnight in ambient conditions ([1]; amorphous input, overnight, ambient conditions): crystalline material

COc1ccc2c3c([nH]c2c1)CCN(C)CC3 [Tabernanthalog•Sorbate]
Outcome ([1]; amorphous Experiment 1-Sample D1 standing overnight, ambient): Crystalline
Outcome ([2]; Hot plate heat up, sorbate 20 to 170 ° C., monofumarate 20 to 210 ° C.): Amorphous
Outcome ([2]; Hot stage plate heat up, sorbate 20 to 170 ° C., monofumarate 20 to 210 ° C.): Amorphous
Outcome ([2]; Open Pan DSC, sorbate 20 to 165 to −20, O/N 20 to 230 ° C., monofumarate 20 to 210 to −20, O/N 20 to 210 ° C.): Amorphous
Outcome ([2]; Sealed DSC, sorbate 20 to 165 to −20 to 230 ° C., monofumarate 20 to 210 to −20 to 210 ° C.): Amorphous
Outcome ([2]; TGA, sorbate 20 to 165 to −20 to 230 ° C., monofumarate 20 to 210 to −20 to 210 ° C.): Amorphous
Glass temperature (Tgs) ([2]; amorphous form generated in situ, sealed DSC thermocycle (Sample B1)): 22 °C
Form by XRPD [3, 7]: Form A
Outcome [3, 7]: Crystalline
Form by XRPD [3, 8]: Form A
Outcome [3, 8]: Crystalline
Form by XRPD [3, 9]: Pattern #7
Outcome [3, 9]: Crystalline and Gum
Form by XRPD ([3]; Amorphisation activity: Hot Melt Extrusion (Overnight), 250 mg): Form A
Form by XRPD ([3]; Amorphisation activity: Hot Melt Extrusion, 250 mg): Form A
Form by XRPD [3, 10]: Form A
Outcome [3, 10]: Crystalline
Form by XRPD [3, 11]: Form A
Outcome [3, 11]: Crystalline
Form by XRPD [3, 12]: Form A
Outcome [3, 12]: Crystalline
Form by XRPD [3, 13]: Form A
Outcome [3, 13]: Crystalline
Form by XRPD [3, 14]: Form A
Outcome [3, 14]: Crystalline

COc1ccc2c3c([nH]c2c1)CCN(C)CC3 [tabernanthalog monofumarate Pattern #1]
stability assessment [4]: no evidence for hydrate formation, chemical degradation or disproportionation

COc1ccc2c3c([nH]c2c1)CCN(C)CC3 [tabernanthalog monofumarate salt, 8-methoxy-3-methyl-1H,2H,3H,4H,5H,6H-azepino[4,5-b]indole fumarate]
solubility in common solvents ([5]; variety of solvents): sparingly soluble in most of the common solvents investigated
solubility ([5]; water, methanol (two separate solvents), water, thermodynamic from solid, reflux, read-out: soluble in methanol/water at reflux): ≥ 200 mg/mL
physical and chemical stability ([6]; open vial and double polyethene bagged, XRPD, HPLC, TGA, DSC, fumarate): physically and chemically stable
change in chemical purity (HPLC) [6]: did not show significant changes in chemical purity
